Measured values from patent US20210040118A1, “IMMUNOMODULATORS, COMPOSITIONS AND METHODS THEREOF” (BETTA PHARMACEUTICALS CO., LTD, priority 2018, published 2021).

Molecular target: T1, PD-1/PD-L1 (Homo sapiens, UniProt Q9NZQ7)
T1 construct: Recombinant human PD-L1 protein (19-238) with a His-tag at the C-terminus; purchased AcroBiosystems PD1-H5229 (PD-L1); PD1-H5257 (PD-1)
Assay: PD-1/PD-L1 homogenous time-resolved fluorescence (HTRF) binding assay
Settings: recombinant human PD-L1 (19-238) His-tag / human PD-1 (25-167) Fc tag
Method in brief: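 Inhibitors were preincubated 40 min at 25°C with 10 nM His-tagged human PD-L1 (19-238) and 3 nM Fc-tagged human PD-1 (25-167) in PBS pH 7.4 containing Tween-20, BSA and 1% DMSO. After 60 min with europium anti-human IgG and anti-His-APC, 665/620 nm signal ratio gave IC50 via percent-control fit.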

T1 sequence (Q9NZQ7 19-238): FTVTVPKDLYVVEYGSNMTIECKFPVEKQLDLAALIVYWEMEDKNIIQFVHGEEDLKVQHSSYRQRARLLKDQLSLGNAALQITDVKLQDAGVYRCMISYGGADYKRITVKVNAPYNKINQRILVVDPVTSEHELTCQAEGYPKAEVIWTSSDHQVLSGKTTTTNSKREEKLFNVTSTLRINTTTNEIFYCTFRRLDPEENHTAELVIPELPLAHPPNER

Cc1c(Nc2nccc3cc(CNCC(=O)N(C)CCO)cnc23)cccc1-c1cccc2c1CCN2C(=O)C1=NC2CCN(CC(=O)O)CC2S1 (centres unmarked) [Example 166, 2-(2-(4-(3-((3-(((2-((2-hydroxyethyl)(methyl)amino)-2-oxoethyl)amino)methyl)-1,7-naphthyridin-8-yl)amino)-2-methylphenyl)indoline-1-carbonyl)-3a,6,7,7a-tetrahydrothiazolo[5,4-c]pyridin-5(4H)-yl)acetic acid]
IC50 (class symbols): < 25 nM

Cc1nc(C(=O)Nc2cccc(-c3cccc(NC(=O)c4nc(C)c(CN[C@H](C(=O)O)C5CCOCC5)s4)c3C)c2C)sc1CN[C@H](C(=O)O)C1CCOCC1 [Example 53, (2S,2'S)-2,2′-(2,2′-(2,2′-dimethylbiphenyl-3,3′-diyl)bis(azanediyl)bis(oxomethylene)bis(4-methylthiazole-5,2-diyl))bis(methylene)bis(azanediyl)bis(2-(tetrahydro-2H-pyran-4-yl)acetic acid)]
IC50 (class symbols): < 25 nM

CS(=O)(=O)NCCN1CCc2nc(C(=O)N3CCc4c(-c5cccc6c5CCN6C(=O)c5nc6c(s5)CN(CCNS(C)(=O)=O)CC6)cccc43)sc2C1 [Example 117, N,N′-((([4,4′-biindoline]-1,1′-dicarbonyl)bis(6,7-dihydrothiazolo[5,4-c]pyridine-2,5(4H)-diyl))bis(ethane-2,1-diyl))dimethanesulfonamide]
IC50 (class symbols): < 25 nM

O=C(Nc1cccc(-c2cccc(NC(=O)c3nc4c(s3)CN(C3COC3)CC4)c2Cl)c1Cl)c1nc2c(s1)CN(C1COC1)CC2 [Example 92, N,N′-(2,2′-dichloro-[1,1′-biphenyl]-3,3′-diyl)bis(5-(oxetan-3-yl)-4,5,6,7-tetrahydrothiazolo[5,4-c]pyridine-2-carboxamide)]
IC50 (class symbols): < 25 nM

NC(=O)NCCN1CCc2nc(C(=O)N3CCc4c(-c5cccc6c5CCN6C(=O)c5nc6c(s5)CN(CCNC(N)=O)CC6)cccc43)sc2C1 [Example 134, 1,1′-((([4,4′-biindoline]-1,1′-dicarbonyl)bis(6,7-dihydrothiazolo[5,4-c]pyridine-2,5(4H)-diyl))bis(ethane-2,1-diyl))diurea]
IC50 (class symbols): < 25 nM

O=C(Nc1cccc(-c2cccc(NC(=O)c3ncc(CN4C[C@H](O)C[C@H]4C(=O)O)s3)c2Cl)c1Cl)c1ncc(CN2C[C@H](O)C[C@H]2C(=O)O)s1 [Example 67, (2S,2'S,4R,4′R)-1,1′-(((((2,2′-dichloro-[1,1′-biphenyl]-3,3′-diyl)bis(azanediyl))bis(carbonyl))bis(thiazole-2,5-diyl))bis(methylene))bis(4-hydroxypyrrolidine-2-carboxylic acid)]
IC50 (class symbols): < 25 nM

O=C(Nc1cccc(-c2cccc(NC(=O)c3nc4c(s3)CNCC4)c2Cl)c1Cl)c1nc2c(s1)CNCC2 [Example 89, N,N′-(2,2′-dichloro-[1,1′-biphenyl]-3,3′-diyl)bis(4,5,6,7-tetrahydrothiazolo[5,4-c]pyridine-2-carboxamide)]
IC50 (class symbols): < 25 nM

COC(=O)NCCNCc1cnc2c(Nc3cccc(-c4cccc5c4CCN5C(=O)C4=NC5CCN(CC(=O)O)CC5S4)c3C)nccc2c1 (centres unmarked) [Example 159, 2-(2-(4-(3-((3-(((2-((methoxycarbonyl)amino)ethyl)amino)methyl)-1,7-naphthyridin-8-yl)amino)-2-methylphenyl)indoline-1-carbonyl)-3a,6,7,7a-tetrahydrothiazolo[5,4-c]pyridin-5(4H)-yl)acetic acid]
IC50 (class symbols): < 25 nM

Cc1c(NC(=O)c2ncc3c(n2)CCNC3)cccc1-c1cccc(NC(=O)c2ncc3c(n2)CCNC3)c1C [Example 188, N,N′-(2,2′-dimethyl-[1,1′-biphenyl]-3,3′-diyl)bis(5,6,7,8-tetrahydropyrido[4,3-d]pyrimidine-2-carboxamide)]
IC50 (class symbols): < 25 nM

Cc1c(NC(=O)c2nc3c(o2)CNCC3)cccc1-c1cccc(NC(=O)c2nc3c(o2)CNCC3)c1C [Example 13, N,N′-(2,2′-dimethyl-[1,1′-biphenyl]-3,3′-diyl)bis(4,5,6,7-tetrahydrooxazolo[5,4-c]pyridine-2-carboxamide)]
IC50 (class symbols): 25 to 100 nM

Cc1c(NCc2nc3c(s2)CNCC3)cccc1-c1cccc(NCc2nc3c(s2)CNCC3)c1C [Example 25, 2,2′-dimethyl-N3,N3′-bis((4,5,6,7-tetrahydrothiazolo[5,4-c]pyridin-2-yl)methyl)-[1,1′-biphenyl]-3,3′-diamine]
IC50 (class symbols): 25 to 100 nM

CN(CCN1CCc2nc(C(=O)N3CCc4c(-c5cccc6c5CCN6C(=O)c5nc6c(s5)CN(CCN(C)S(C)(=O)=O)CC6)cccc43)sc2C1)S(C)(=O)=O [Example 118, N,N′-((([4,4′-biindoline]-1,1′-dicarbonyl)bis(6,7-dihydrothiazolo[5,4-c]pyridine-2,5(4H)-diyl))bis(ethane-2,1-diyl))bis(N-methylmethanesulfonamide)]
IC50 (class symbols): < 25 nM

Cc1c(-c2cccc(N(C)C(=O)c3nc4c(s3)CNCC4)c2C)cccc1N(C)C(=O)c1nc2c(s1)CNCC2 [Example 23, N,N′-(2,2′-dimethyl-[1,1′-biphenyl]-3,3′-diyl)bis(N-methyl-4,5,6,7-tetrahydrothiazolo[5,4-c]pyridine-2-carboxamide)]
IC50 (class symbols): 100 to 200 nM

Cc1c(NC(=O)c2nc3c(s2)CN(Cc2ccc(Cl)c(Cl)c2)CC3)cccc1-c1cccc(NC(=O)c2nc3c(s2)CN(Cc2ccc(Cl)c(Cl)c2)CC3)c1C [Example 75, N,N′-(2,2′-dimethyl-[1,1′-biphenyl]-3,3′-diyl)bis(5-(3,4-dichlorobenzyl)-4,5,6,7-tetrahydrothiazolo[5,4-c]pyridine-2-carboxamide)]
IC50 (class symbols): 100 to 200 nM

COC(=O)Cn1cc(CN2CCc3nc(C(=O)N4CCc5c(-c6cccc7c6CCN7C(=O)c6nc7c(s6)CN(Cc6cn(CC(=O)OC)nn6)CC7)cccc54)sc3C2)nn1 [Example 135, dimethyl 2,2′-(((([4,4′-biindoline]-1,1′-dicarbonyl)bis(6,7-dihydrothiazolo[5,4-c]pyridine-2,5(4H)-diyl))bis(methylene))bis(1H-1,2,3-triazole-4,1-diyl))diacetate]
IC50 (class symbols): < 25 nM

Cc1c(NC(=O)c2nnc([C@H](C)N)s2)cccc1-c1cccc(NC(=O)c2nnc([C@H](C)N)s2)c1C [Example 31, N,N′-(2,2′-dimethyl-[1,1′-biphenyl]-3,3′-diyl)bis(5-((S)-1-aminoethyl)-1,3,4-thiadiazole-2-carboxamide)]
IC50 (class symbols): < 25 nM

CN1CCc2nc(C(=O)Nc3cccc(-c4cccc(NC(=O)c5nc6c(s5)CN(C)CC6)c4Cl)c3Cl)sc2C1 [Example 44, N,N′-(2,2′-dichloro-[1,1′-biphenyl]-3,3′-diyl)bis(5-methyl-4,5,6,7-tetrahydrothiazolo[5,4-c]pyridine-2-carboxamide)]
IC50 (numeric values): 0.62 nM

Cc1c(NC(=O)c2nc3c(s2)CNCC3)cccc1-c1cccc(NC(=O)c2nc3c(s2)CN(C)CC3)c1Cl [Example 50, N-(2-chloro-2′-methyl-3′-(4,5,6,7-tetrahydrothiazolo[5,4-c]pyridine-2-carboxamido)biphenyl-3-yl)-5-methyl-4,5,6,7-tetrahydrothiazolo[5,4-c]pyridine-2-carboxamide]
IC50 (class symbols): < 25 nM

Cc1c(NC(=O)c2cn3c(n2)CN(C(C)CO)CC3)cccc1-c1cccc(NC(=O)c2cn3c(n2)CN(C(C)CO)CC3)c1C (centres unmarked) [Example 36, N,N′-(2,2′-dimethyl-[1,1′-biphenyl]-3,3′-diyl)bis(7-(1-hydroxypropan-2-yl)-5,6,7,8-tetrahydroimidazo[1,2-a]pyrazine-2-carboxamide)]
IC50 (class symbols): < 25 nM

CC(c1nc2c(s1)CN(C)CC2)N1CCc2c(-c3cccc4c3CCN4C(C)c3nc4c(s3)CN(C)CC4)cccc21 (centres unmarked) [Example 47, 1,1′-bis(1-(5-methyl-4,5,6,7-tetrahydrothiazolo[5,4-c]pyridin-2-yl)ethyl)-4,4′-biindoline]
IC50 (class symbols): < 25 nM

O=C(O)CN1CCc2sc(C(=O)N3CCc4c(-c5cccc6c5CCN6C(=O)c5nc6c(s5)CCN(CC(=O)O)C6)cccc43)nc2C1 [Example 119, 2,2′-(([4,4′-biindoline]-1,1′-dicarbonyl)bis(6,7-dihydrothiazolo[4,5-c]pyridine-2,5(4H)-diyl))diacetic acid]
IC50 (class symbols): < 25 nM

O=C(O)CN1CCc2nc(C(=O)N3CCc4c(-c5cccc6c5CCN6C(=O)c5nc6c(s5)CN(CC(=O)O)CC6)cccc43)sc2C1 [Example 103, 2,2′-(([4,4′-biindoline]-1,1′-dicarbonyl)bis(6,7-dihydrothiazolo[5,4-c]pyridine-2,5(4H)-diyl))diacetic acid]
IC50 (numeric values): 0.37 nM

Cc1c(Nc2nccc3cc(CNCCO)cnc23)cccc1-c1cccc(Nc2nccc3cc(NCCO)cnc23)c1C [Example 6, 2-(((8-((3′-((3-((2-hydroxyethyl)amino)-1,7-naphthyridin-8-yl)amino)-2,2′-dimethyl-[1,1′-biphenyl]-3-yl)amino)-1,7-naphthyridin-3-yl)methyl)amino)ethan-1-ol]
IC50 (class symbols): < 25 nM

CS(=O)(=O)NC(=O)C1(N2CCc3nc(C(=O)N4CCc5c(-c6cccc7c6CCN7C(=O)c6nc7c(s6)CN(C6(C(=O)NS(C)(=O)=O)CC6)CC7)cccc54)sc3C2)CC1 [Example 129, 1,1′-(([4,4′-biindoline]-1,1′-dicarbonyl)bis(6,7-dihydrothiazolo[5,4-c]pyridine-2,5(4H)-diyl))bis(N-(methylsulfonyl)cyclopropane-1-carboxamide)]
IC50 (class symbols): 25 to 100 nM

Cc1c(NCc2nnc(C3(N)CCC3)s2)cccc1-c1cccc(NCc2nnc(C3(N)CCC3)s2)c1C [Example 26, N3,N3′-bis((5-(1-aminocyclobutyl)-1,3,4-thiadiazol-2-yl)methyl)-2,2′-dimethyl-[1,1′-biphenyl]-3,3′-diamine]
IC50 (class symbols): 25 to 100 nM

Cc1c(NC(=O)c2cc3c(s2)CNCC3)cccc1-c1cccc(NC(=O)c2cc3c(s2)CNCC3)c1C [Example 32, N,N′-(2,2′-dimethyl-[1,1′-biphenyl]-3,3′-diyl)bis(4,5,6,7-tetrahydrothieno[2,3-c]pyridine-2-carboxamide)]
IC50 (numeric values): 18.1 nM
